{"source": "patent US12220418B2", "about": "(MEDINCELL S.A., priority 2023, dated 2025)", "assay": "Open-label SAD and MAD study, pharmacokinetics in healthy subjects and patients", "assay_type": "in vivo, human", "conditions": "oral, 2.5 to 20 mg/day for 7 days", "description": "This study was an open-label, SAD, and MAD study to evaluate the safety, tolerability, and PK of Formulation 1 in healthy subjects and patients with a diagnosis of schizophrenia or schizoaffective disorder. Healthy subjects received subtherapeutic Formulation 1 doses of up to 105 mg and patients received therapeutic doses of up to 566 mg. […] Subjects and patients who met screening eligibility were assigned to 1 of 8 active cohorts, or the Vehicle Cohort, as detailed in Table 5.1 below.\nAll cohorts included assessments of safety, tolerability, and intensive PK sampling.\nExcept for the starting dose of 70 mg, the study followed an adaptive design in which the decision to dose-escalate with Formulation 1 was based on a review of the PK and safety data from the preceding lower dose of Formulation 1.\nAn extensive PK collection scheme was applied following the last oral dose to fully characterize the PK at steady-state.\nIn multiple-dose cohorts, the 3 doses of Formulation 1 were administered on day 1, day 29 (week 4) and day 57 (week 8), respectively.", "data": [{"smiles": "Cc1cc2c(s1)Nc1ccccc1N=C2N1CCN(C)CC1", "note": "[olanzapine, 2-methyl-4-(4-methyl-1-piperazinyl)-10H-thieno[2,3-b] [1,5]benzodiazepine]", "values": [{"measurement": "increase of systemic exposure (Cmax, AUCτ,ss) with dose", "result": "dose-proportional"}]}]}
